The text below walks through data of patent US5057494A, “Method for preventing tissue damage after an ischemic episode” (Ethicon, Inc., priority 1988, dated 1991).

The subject of assay [1] is gerbils. Kind of assay: Spontaneous locomotor activity after 5-min bilateral carotid occlusion (photocell activity chambers). The settings on record: for Motor Activity at 24 hours: Example 2, saline 3028; for Spontaneous locomotor activity: Table 1, mean of 6 gerbils. It counts as in vivo, gerbil. The text has this: (§1) The present example is based on a surgical procedure that has been developed to study the effects of cerebral or brain ischemia in the unanesthetized gerbil. The methodology is based upon the surgical isolation and instrumentation of both common carotid arteries. A loop of dental floss is placed around each carotid artery and passed through a double lumen catheter material; this allows for later occlusion of the carotid arteries and their release in the unanesthetized subject. […] Behavioral changes consequent to stroke are useful and pertinent as a means of evaluation in this model of nonlethal transient ischemia Emotional lability, depression, agitation and motor and cognitive deficits are common after stroke. The psychomotor depression noted immediately after transient ischemia in this gerbil model mimics the clinical situation in humans. Spontaneous motor activity is an indicator of aroused state and is a behavior commonly measured in psychopharmacology research. Changes in locomotor activity have been shown in extensive pharmacological and toxicology studies to provide reliable, reproducible first-assessment data about neurological status. The details of this method are more fully set forth in Chandler, M.J. et al., J. Pharm. Meth. 14:137-146 (1985).
(§2) Ligatures externalized through double lumen catheters were surgically placed around both common carotid arteries of mature (50-60 gram) gerbils. After allowing recovery from surgery, conscious gerbils were subjected to a 5 minute period of bilateral carotid occlusion by tightening the ligatures. Spontaneous motor activity was then periodically monitered over seven days followed by animal sacrifice and blinded histological evaluation of brain sections. EGF (0.1 and 1.0 mg/kg) and FGF (0.1, 1.0 and 10.0 mg/kg) were given intraperitoneally in saline at one hour pre-occlusion and one, three, five and seven hours post-occlusion. Two control groups (occluded and non-occluded) received saline by the same route.
Spontaneous locomotor activity was recorded using photocell activity chambers. The chambers were two-foot circular arenas that were individually housed in sound attenuating compartments ventilated by a fan. Activity was monitored by two orthogonally placed photocell circuits. A single break of the photocell light beam by the animal's movements defined an activity count counts were monitored and recorded as a function of time. The data in Tables 1 and 2 represent activity counts.
(§3) Gerbils were treated as in Example 1, except that dosing was at 1,3,5 and 7 hours post-occlusion only.

Assay [2] deals with hippocampal pyramidal cell layer. Kind of assay: Blinded histological evaluation of brain sections after 5-min bilateral carotid occlusion. The settings on record: for Protection of the animal's neurons (in words): as monitored by motor activity or histology; for Average Histopathology Score: Example 2, saline 4.8, scale 0-5 of Table 4. Format: in vivo, gerbil.
From the text: as §1, §2, §3

Setting [3] is: 0.01 mg/kg i.p. at 1,3,5,7 h post-occlusion only.
Setting [4] is: 0.1 mg/kg i.p. at 1,3,5,7 h post-occlusion only.
The mark [5] stands for this setting: 1 mg/kg i.p. at 1,3,5,7 h post-occlusion only.

With “EGF: epidermal growth factor; polypeptide growth factor (human EGF is fifty-three amino acids); source of tested material not stated”, the results for the “Motor Activity at 24 hours” value in assay [1] (setting [3]), in assay [1] (setting [4]) and in assay [1] (setting [5]) were 1891, 1051 and 715, respectively. Further, the Spontaneous locomotor activity in assay [1] (0.1 mg/kg i.p. at 1 h pre- and 1,3,5,7 h post-occlusion, 6 h after ischemia, saline post-ischemic 2366, non-ischemic 485) is given as 1511 activity counts; in assay [1] (0.1 mg/kg i.p. at 1 h pre- and 1,3,5,7 h post-occlusion, 24 h after ischemia, saline post-ischemic 1960, non-ischemic 529) it was 658 activity counts; in assay [1] (0.1 mg/kg i.p. at 1 h pre- and 1,3,5,7 h post-occlusion, 48 h after ischemia, saline post-ischemic 2145, non-ischemic 613), 687 activity counts; in assay [1] (0.1 mg/kg i.p. at 1 h pre- and 1,3,5,7 h post-occlusion, 72 h after ischemia, saline post-ischemic 1011, non-ischemic 579), 715 activity counts; in assay [1] (0.1 mg/kg i.p. at 1 h pre- and 1,3,5,7 h post-occlusion, 96 h after ischemia, saline post-ischemic 895, non-ischemic 493), 626 activity counts; in assay [1] (0.1 mg/kg i.p. at 1 h pre- and 1,3,5,7 h post-occlusion, 120 h after ischemia, saline post-ischemic 486, non-ischemic 463), 511 activity counts. Besides, the Spontaneous locomotor activity in assay [1] (1.0 mg/kg i.p. at 1 h pre- and 1,3,5,7 h post-occlusion, 6 h after ischemia, saline post-ischemic 2366, non-ischemic 485) is 705 activity counts; in assay [1] (1.0 mg/kg i.p. at 1 h pre- and 1,3,5,7 h post-occlusion, 24 h after ischemia, saline post-ischemic 1960, non-ischemic 529), 766 activity counts; in assay [1] (1.0 mg/kg i.p. at 1 h pre- and 1,3,5,7 h post-occlusion, 48 h after ischemia, saline post-ischemic 2145, non-ischemic 613) it was 588 activity counts; in assay [1] (1.0 mg/kg i.p. at 1 h pre- and 1,3,5,7 h post-occlusion, 72 h after ischemia, saline post-ischemic 1011, non-ischemic 579), 463 activity counts; in assay [1] (1.0 mg/kg i.p. at 1 h pre- and 1,3,5,7 h post-occlusion, 96 h after ischemia, saline post-ischemic 895, non-ischemic 493) it was 445 activity counts; in assay [1] (1.0 mg/kg i.p. at 1 h pre- and 1,3,5,7 h post-occlusion, 120 h after ischemia, saline post-ischemic 486, non-ischemic 463) it was 314 activity counts. Also, the “Protection of the animal's neurons (in words)” value in assay [2] (0.1 mg/kg i.p. pre- and post-occlusion) is “modest protection”; in assay [2] (1 mg/kg i.p. pre- and post-occlusion) it was “almost total protection”. The results for the “Average Histopathology Score” value in assay [2] (setting [3]), in assay [2] (setting [4]) and in assay [2] (setting [5]) were 4.7, 1.5 and 2.2, respectively.
